# Results published in patent publication US20220177510A1, “DERIVATIVES OF GYLCERO-MANNO-HEPTOSE ADP FOR USE IN MODULATING IMMUNE RESPONSE” (priority 2019, published 2022).
# Assays:
# ALPK1 [1] = target: T1, ALPK1 (Homo sapiens, UniProt Q96QP1); experiment: NF-kB promoter driven alkaline phosphatase reporter in HEK293 cells (pNPP assay); format: cell-based; conditions: HEK293-NFkB-AP reporter cells treated 7 hours
# T1 construct: endogenous in cells; host or cells: HEK293 (A1); HEK293 stably expressing an NF-kB-alkaline phosphatase reporter (A2)
# T1 sequence (Q96QP1 whole entry): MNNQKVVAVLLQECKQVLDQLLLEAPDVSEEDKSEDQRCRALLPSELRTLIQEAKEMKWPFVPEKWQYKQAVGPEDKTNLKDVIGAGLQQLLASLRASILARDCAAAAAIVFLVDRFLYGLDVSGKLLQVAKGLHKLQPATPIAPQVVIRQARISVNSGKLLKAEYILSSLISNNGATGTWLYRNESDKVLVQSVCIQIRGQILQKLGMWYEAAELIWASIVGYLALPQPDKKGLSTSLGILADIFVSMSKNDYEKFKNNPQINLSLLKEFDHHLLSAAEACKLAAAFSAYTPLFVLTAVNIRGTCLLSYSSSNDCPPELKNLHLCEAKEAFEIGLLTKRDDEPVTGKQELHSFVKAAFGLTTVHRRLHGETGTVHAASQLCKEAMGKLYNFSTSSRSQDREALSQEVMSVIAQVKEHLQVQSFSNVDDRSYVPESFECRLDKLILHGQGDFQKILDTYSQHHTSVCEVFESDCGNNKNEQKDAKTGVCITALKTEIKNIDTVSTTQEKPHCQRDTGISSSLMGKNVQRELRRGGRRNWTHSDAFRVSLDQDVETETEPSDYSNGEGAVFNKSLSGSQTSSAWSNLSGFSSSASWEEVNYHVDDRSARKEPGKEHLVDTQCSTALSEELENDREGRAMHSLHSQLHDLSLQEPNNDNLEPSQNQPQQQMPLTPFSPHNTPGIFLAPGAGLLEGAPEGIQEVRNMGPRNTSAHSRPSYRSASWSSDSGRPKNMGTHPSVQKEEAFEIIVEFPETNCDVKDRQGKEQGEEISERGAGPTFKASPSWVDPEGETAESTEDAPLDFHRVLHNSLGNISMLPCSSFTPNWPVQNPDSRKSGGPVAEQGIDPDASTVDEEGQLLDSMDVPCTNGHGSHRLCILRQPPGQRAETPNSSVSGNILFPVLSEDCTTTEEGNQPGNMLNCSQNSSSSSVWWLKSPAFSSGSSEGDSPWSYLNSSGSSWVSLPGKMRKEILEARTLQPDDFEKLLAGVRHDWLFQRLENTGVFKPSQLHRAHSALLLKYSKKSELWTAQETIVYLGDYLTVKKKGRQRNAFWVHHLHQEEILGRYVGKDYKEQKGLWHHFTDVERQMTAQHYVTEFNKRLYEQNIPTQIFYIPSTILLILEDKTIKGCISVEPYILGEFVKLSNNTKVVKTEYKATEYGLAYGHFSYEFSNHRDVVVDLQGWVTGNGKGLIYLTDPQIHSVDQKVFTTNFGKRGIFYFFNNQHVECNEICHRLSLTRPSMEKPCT
# Protocol: NF-kB activation was assayed using HEK293 cells stably expressing an NF-kB reporter construct comprising an NF-kB promoter driving expression of alkaline phosphatase (AP). In this system, activation of NF-kB promoter activity drives the expression of AP which is detected using a chromogenic substrate, para-nitrophenyl phosphate (pNPP).
# To assess the ALPK1 agonist activity of test compounds, the HEK293 cells were seeded in 96-well plates and allowed to attach overnight. Cells were then exposed to graded concentrations of compounds A1, A2, A3, A4, A18, A26, A27, A28, and A30. Compound 28 was included as a reference. Following treatment, cell culture supernatants were collected and analyzed for alkaline phosphatase activity using the pNPP assay. The results are shown in FIGS. 7A-7B and Table 2B-C below. The EC50 for each compound was determined using GraphPad Prism.
# ALPK1 [2] = target: T1, ALPK1; experiment: IL-8 secretion by HEK293 cells (IL-8 ELISA) as indication of ALPK1 activation; format: cell-based; conditions: HEK293 cells treated 4 hours, FIG. 6, Table 2A
# Protocol: HEK293 cells were treated with H1b-ADP derivatives (A1, A2, A3, and A4) or with Compound 28 for 4 hours followed by analysis of IL-8 secretion using an IL-8 enzyme linked immunoassay (ELISA). IL-8 secretion is an indication of ALPK1 activation. The EC50 of each compound was determined using GraphPad Prism.
Compound,"EC50 (ALPK1 [1]; FIG. 7B, Table 2C) [nM]",EC50 (ALPK1 [2]) [nM],"EC50 (ALPK1 [1]; FIG. 7A, Table 2B) [nM]"
"CC(=O)OC[C@H](F)[C@H]1O[C@@H](OP(=O)(O)OP(O)(=S)OC[C@H]2O[C@@H](n3ncc4c(N)ncnc43)[C@H](O)[C@@H]2O)[C@@H](OC(C)=O)[C@@H](OC(C)=O)[C@@H]1OC(C)=O (stereo partly drawn) [Compound A26, (2S,3S,4S,5S,6S)-2-((S)-2-acetoxy-1-fluoroethyl)-6-(((((((2R,3S,4R,5R)-5-(4-amino-1H-pyrazolo[3,4-d]pyrimidin-1-yl)-3,4-dihydroxytetrahydrofuran-2-yl)methoxy)(hydroxy)phosphorothioyl)oxy)(hydroxy)phosphoryl)oxy)tetrahydro-2H-pyran-3,4,5-triyl triacetate]",10100,,
"CC(=O)OC[C@H](F)[C@H]1O[C@@H](OP(=O)(O)OP(O)(=S)OC[C@H]2O[C@@H](c3csc(C(N)=O)c3N)[C@H](O)[C@@H]2O)[C@@H](OC(C)=O)[C@@H](OC(C)=O)[C@@H]1OC(C)=O (stereo partly drawn) [Compound A30, (2S,3S,4S,5S,6S)-2-((S)-2-acetoxy-1-fluoroethyl)-6-(((((((2R,3S,4R,5S)-5-(4-amino-5-carbamoylthiophen-3-yl)-3,4-dihydroxytetrahydrofuran-2-yl)methoxy)(hydroxy)phosphorothioyl)oxy)(hydroxy)phosphoryl)oxy)tetrahydro-2H-pyran-3,4,5-triyl triacetate]",42.3,,
"CCCCCCCCCCCCCC(=O)OC[C@H](F)C1O[C@@H](OP(=O)(O)OP(O)(=S)OC[C@H]2O[C@@H](n3cnc4c(N)ncnc43)C(O)C2O)C(OC(C)=O)C(OC(C)=O)[C@@H]1OC(C)=O (stereo partly drawn) [Compound A3, (2S,3S,4S,5S,6S)-2-(((((((2R,3S,4R,5R)-5-(6-amino-9H-purin-9-yl)-3,4-dihydroxytetrahydrofuran-2-yl)methoxy)(hydroxy)phosphorothioyl)oxy)(hydroxy)phosphoryl)oxy)-6-((S)-1-fluoro-2-(tetradecanoyloxy)ethyl)tetrahydro-2H-pyran-3,4,5-triyl triacetate]",,2,3.9
"CCCCCCCCC(=O)OC[C@H](F)C1O[C@@H](OP(=O)(O)OP(O)(=S)OC[C@H]2O[C@@H](n3cnc4c(N)ncnc43)C(O)C2O)C(OC(C)=O)C(OC(C)=O)[C@@H]1OC(C)=O (stereo partly drawn) [Compound A4, (2S,3S,4S,5S,6S)-2-(((((((2R,3S,4R,5R)-5-(6-amino-9H-purin-9-yl)-3,4-dihydroxytetrahydrofuran-2-yl)methoxy)(hydroxy)phosphorothioyl)oxy)(hydroxy)phosphoryl)oxy)-6-((S)-1-fluoro-2-(nonanoyloxy)ethyl)tetrahydro-2H-pyran-3,4,5-triyl triacetate]",,19.2,19.1
"CC(=O)OC[C@H](F)[C@H]1O[C@@H](OP(=O)(O)OP(O)(=S)OC[C@H]2O[C@@H](c3coc4c(N)ncnc34)[C@H](O)[C@@H]2O)[C@@H](OC(C)=O)[C@@H](OC(C)=O)[C@@H]1OC(C)=O (stereo partly drawn) [Compound A28, (2S,3S,4S,5S,6S)-2-((S)-2-acetoxy-1-fluoroethyl)-6-(((((((2R,3S,4R,5S)-5-(4-aminofuro[3,2-d]pyrimidin-7-yl)-3,4-dihydroxytetrahydrofuran-2-yl)methoxy)(hydroxy)phosphorothioyl)oxy)(hydroxy)phosphoryl)oxy)tetrahydro-2H-pyran-3,4,5-triyl triacetate]",3.9,,
"CCCCCCCCCCCC(=O)OC[C@H](F)C1O[C@@H](OP(=O)(O)OP(O)(=S)OC[C@H]2O[C@@H](n3cnc4c(N)ncnc43)C(O)C2O)C(OC(C)=O)C(OC(C)=O)[C@@H]1OC(C)=O (stereo in doubt) [Compound A2, 2S,3S,4S,5S,6S)-2-(((((((2R,3S,4R,5R)-5-(6-amino-9H-purin-9-yl)-3,4-dihydroxytetrahydrofuran-2-yl)methoxy)(hydroxy)phosphorothioyl)oxy)(hydroxy)phosphoryl)oxy)-6-((S)-2-(dodecanoyloxy)-1-fluoroethyl)tetrahydro-2H-pyran-3,4,5-triyl triacetate]",,7.1,11.9
"CCCCCCCCCCCCCCCCCC(=O)OC[C@H](F)[C@H]1O[C@@H](OP(=O)(O)OP(O)(=S)OC[C@H]2O[C@@H](n3cnc4c(N)ncnc43)[C@H](O)[C@@H]2O)[C@@H](OC(C)=O)[C@@H](OC(C)=O)[C@@H]1OC(C)=O (stereo partly drawn) [Compound A1, (2S,3S,4S,5S,6S)-2-(((((((2R,3S,4R,5R)-5-(6-amino-9H-purin-9-yl)-3,4-dihydroxytetrahydrofuran-2-yl)methoxy)(hydroxy)phosphorothioyl)oxy)(hydroxy)phosphoryl)oxy)-6-((S)-1-fluoro-2-(stearoyloxy)ethyl)tetrahydro-2H-pyran-3,4,5-triyl triacetate]",,3.1,11
"CC(=O)OC[C@H](F)C1O[C@@H](OP(=O)(O)OP(O)(=S)OC[C@H]2O[C@@H](n3cnc4c(NC(=O)c5ccccc5)ncnc43)C(O)C2O)C(OC(C)=O)C(OC(C)=O)[C@@H]1OC(C)=O (stereo partly drawn) [Compound A27, (2S,3S,4S,5S,6S)-2-((S)-2-acetoxy-1-fluoroethyl)-6-(((((((2R,3S,4R,5R)-5-(6-benzamido-9H-purin-9-yl)-3,4-dihydroxytetrahydrofuran-2-yl)methoxy)(hydroxy)phosphorothioyl)oxy)(hydroxy)phosphoryl)oxy)tetrahydro-2H-pyran-3,4,5-triyl triacetate]",37.8,,
